Test results published in patent publication US20030186967A1, “Acylresorcinol derivatives are selective vitronectin receptor inhibitors” (American Home Products Corporation, priority 1998, published 2003).

The compounds below were run against T1, Vitronectin receptor αVβ3 (Homo sapiens, UniProt P05106+P06756) (assay: Vitronectin Receptor αVβ3 Binding Assay). Conditions: read-out: VnR (IC50μM).
T1 construct: expressed in transfected cells; host or cells: 512P5 cells (plasma membrane preparation)
T1 sequence (P06756 31-889 limits assumed): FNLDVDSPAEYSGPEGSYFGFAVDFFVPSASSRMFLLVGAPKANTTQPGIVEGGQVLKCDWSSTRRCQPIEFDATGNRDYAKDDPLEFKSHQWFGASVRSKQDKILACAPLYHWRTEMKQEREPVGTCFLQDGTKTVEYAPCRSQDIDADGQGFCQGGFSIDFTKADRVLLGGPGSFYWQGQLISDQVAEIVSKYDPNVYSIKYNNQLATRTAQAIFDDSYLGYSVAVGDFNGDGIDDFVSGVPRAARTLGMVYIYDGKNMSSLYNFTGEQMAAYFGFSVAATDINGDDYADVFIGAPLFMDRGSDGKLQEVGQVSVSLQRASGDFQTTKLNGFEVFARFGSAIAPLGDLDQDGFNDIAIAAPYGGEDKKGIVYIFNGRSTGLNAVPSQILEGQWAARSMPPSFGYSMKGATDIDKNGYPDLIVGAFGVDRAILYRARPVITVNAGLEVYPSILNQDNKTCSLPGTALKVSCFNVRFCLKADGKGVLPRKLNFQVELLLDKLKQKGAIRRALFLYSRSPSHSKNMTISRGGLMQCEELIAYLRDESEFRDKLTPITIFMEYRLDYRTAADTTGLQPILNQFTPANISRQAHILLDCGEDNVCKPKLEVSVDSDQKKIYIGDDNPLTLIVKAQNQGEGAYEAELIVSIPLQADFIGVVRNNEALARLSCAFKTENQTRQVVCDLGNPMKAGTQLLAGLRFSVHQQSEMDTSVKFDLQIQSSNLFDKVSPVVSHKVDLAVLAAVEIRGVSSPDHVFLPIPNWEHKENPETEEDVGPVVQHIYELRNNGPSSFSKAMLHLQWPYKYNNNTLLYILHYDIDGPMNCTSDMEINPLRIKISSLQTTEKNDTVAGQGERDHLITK
T1 sequence (P06756 891-1048 partner limits assumed): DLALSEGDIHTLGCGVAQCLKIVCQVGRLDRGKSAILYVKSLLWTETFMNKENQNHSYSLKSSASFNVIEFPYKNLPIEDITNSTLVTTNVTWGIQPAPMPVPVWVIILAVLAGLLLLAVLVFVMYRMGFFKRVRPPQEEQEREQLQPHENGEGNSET
T1 sequence (P05106 27-788): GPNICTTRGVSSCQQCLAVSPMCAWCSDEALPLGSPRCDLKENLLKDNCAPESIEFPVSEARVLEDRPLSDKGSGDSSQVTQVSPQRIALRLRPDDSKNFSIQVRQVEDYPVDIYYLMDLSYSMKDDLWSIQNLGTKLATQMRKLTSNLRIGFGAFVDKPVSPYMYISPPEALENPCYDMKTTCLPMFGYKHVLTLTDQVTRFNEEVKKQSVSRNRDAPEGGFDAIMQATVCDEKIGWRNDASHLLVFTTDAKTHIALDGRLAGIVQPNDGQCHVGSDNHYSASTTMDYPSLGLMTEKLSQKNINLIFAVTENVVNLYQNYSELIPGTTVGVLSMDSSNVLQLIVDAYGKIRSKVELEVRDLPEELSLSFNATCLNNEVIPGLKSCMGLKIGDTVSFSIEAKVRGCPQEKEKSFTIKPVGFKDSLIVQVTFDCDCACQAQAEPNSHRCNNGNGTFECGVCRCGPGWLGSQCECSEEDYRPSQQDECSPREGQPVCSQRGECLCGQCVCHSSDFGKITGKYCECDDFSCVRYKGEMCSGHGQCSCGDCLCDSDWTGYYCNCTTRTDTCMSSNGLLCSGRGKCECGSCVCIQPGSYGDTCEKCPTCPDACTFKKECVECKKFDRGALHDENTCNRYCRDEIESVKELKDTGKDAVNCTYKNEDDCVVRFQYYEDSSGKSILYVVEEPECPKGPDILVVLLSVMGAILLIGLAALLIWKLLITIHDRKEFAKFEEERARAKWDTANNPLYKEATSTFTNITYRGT

IC50	SMILES
2.76 µM	O=C(Nc1ccccc1-c1ccccc1)N[C@@H](CNC(=O)c1ccc(OCCNC2=NCCN2)cc1O)C(=O)O [Example 116, (2S)-2-{[([1,1′-biphenyl]-2-ylamino)carbonyl]amino}-3-({4-[2-(4,5-dihydro-1H-imidazol-2-ylamino)ethoxy]-2-hydroxybenzoyl}amino)propanoic acid]
> 1 µM	CC1(C)C(C(=O)N[C@@H](CNC(=O)c2ccc(OCCNC3=NCCN3)cc2O)C(=O)O)C1(C)C [Example 123, (2S)-3-({4-[2-(4,5-dihydro-1H-imidazol-2-ylamino)ethoxy]-2-hydroxybenzoyl}-amino)-2-{[(2,2,3,3-tetramethylcyclopropyl)carbonyl]amino}propanoic acid]
0.258 µM	COc1ccccc1NC(=O)N[C@@H](CNC(=O)c1ccc(OCCNC2=NCCN2)cc1O)C(=O)O [Example 115, (2S)-3-({4-[2-(4,5-dihydro-1H-imidazol-2-ylamino)ethoxy]-2-hydroxybenzoyl}-amino)-2-{[(2-methoxyanilino)carbonyl]amino}propanoic acid]
2 µM	CCOC(=O)N[C@@H](CNC(=O)c1ccc(OCCNC(=N)N)cc1O)C(=O)O [Example 159, (2S)-3-{[4-(2-{[amino(imino)methyl]amino)ethoxy)-2-hydroxybenzoyl]amino}-2-[(ethoxycarbonyl)amino]propanoic acid]
> 1 µM	CCCCC(=O)N[C@@H](CNC(=O)c1ccc(OCCNC2=NCCN2)cc1O)C(=O)O [Example 121, (2S)-3-({4-[2-(4,5-dihydro-1H-imidazol-2-ylamino)ethoxy]-2-hydroxybenzoyl}-amino)-2-(pentanoylamino)propanoic acid]
0.123 µM	CCOC(=O)N[C@@H](CNC(=O)c1ccc(OCCNC2=NCCCN2)cc1O)C(=O)O [Example 3, (2S)-2-[(ethoxycarbonyl)amino]-3-({2-hydroxy-4-[2-(1,4,5,6-tetrahydropyrimidin-2ylamino)ethoxy]benzoyl}amino)propanoic acid]
100 µM	CCCCCCCCOC(=O)N[C@@H](CNC(=O)c1ccc(OCCNc2ncccn2)cc1O)C(=O)O [Example 58, (2S)-3-({2-hydroxy-4-[2-(pyrimidin-2-ylamino)ethoxy]benzoyl}amino)-2-{[(octyloxy)carbonyl]amino}propanoic acid]
> 1 µM	CCCCC(=O)N[C@@H](CNC(=O)c1ccc(OCCNC(=N)N)cc1O)C(=O)O [Example 193, (2S)-3-{[4-(2-{[amino(imino)methyl]amino}ethoxy)-2-hydroxybenzoyl]amino}-2-(pentanoylamino)propanoic acid]
1.09 µM	O=C(NC1CCCCC1)N[C@@H](CNC(=O)c1ccc(OCCNC2=NCCN2)cc1O)C(=O)O [Example 112, (2S)-2-{[(cyclohexylamino)carbonyl]amino}-3-({4-[2-(4,5-dihydro-1H-imidazol-2-ylamino)ethoxy]-2-hydroxybenzoyl}amino)propanoic acid]
100 µM	CCCCCCOC(=O)N[C@@H](CNC(=O)c1ccc(OCCNc2ncccn2)cc1O)C(=O)O [Example 62, (2S)-2-{[(hexyloxy)carbonyl]amino}-3-({2-hydroxy-4-[2-(pyrimidin-2-ylamino)-ethoxy]benzoyl}amino)propanoic acid]
0.183 µM	C#CCOC(=O)N[C@@H](CNC(=O)c1ccc(OCCNC2=NCCCN2)cc1O)C(=O)O [Example 13, (2S)-3-({2-hydroxy-4-[2-(1,4,5,6-tetrahydropyrimidin-2-ylamino)ethoxy]benzoyl}-amino)-2-{[(prop-2-ynyloxy)carbonyl]amino}propanoic acid]
0.119 µM	O=C(N[C@@H](CNC(=O)c1ccc(OCCNC2=NCCN2)cc1O)C(=O)O)OCc1ccccc1 [Example 96, (2S)-2-{[(benzyloxy)carbonyl]amino}-3-({4-[2-(4,5-dihydro-1H-imidazol-2-ylamino)ethoxy]-2-hydroxybenzoyl}amino)propanoic acid]
4.87 µM	N=C(N)NCCOc1ccc(C(=O)NC[C@H](NC(=O)Nc2ccccc2-c2ccccc2)C(=O)O)c(O)c1 [Example 177]
59.3 µM	CN(C)c1ccc(CNC(=O)NCCOc2ccc(C(=O)NC[C@H](NC(=O)OCc3ccccc3)C(=O)O)c(O)c2)cc1 [Example 264, (2S)-2-{[(benzyloxy)carbonyl]amino}-3-[(4-{2-[({[4-(dimethylamino)benzyl]-amino}carbonyl)amino]ethoxy}-2-hydroxybenzoyl)amino]propanoic acid]
> 1 µM	CC1(C)C(C(=O)N[C@@H](CNC(=O)c2ccc(OCCNC(=N)N)cc2O)C(=O)O)C1(C)C [Example 195, (2S)-3-{[4-(2-{[amino(imino)methyl]amino}ethoxy)-2-hydroxybenzoyl]amino}-2-{[(2,2,3,3-tetramethylcyclopropyl)carbonyl]amino}propanoic acid]
4.1 µM	CCCCCCOC(=O)N[C@@H](CNC(=O)c1ccc(OCCNC(=O)NCc2cccnc2)cc1O)C(=O)O [Example 241, (2S)-2-{[(hexyloxy)carbonyl]amino}-3-({2-hydroxy-4-[2-({[(pyridin-3-ylmethyl)-amino]carbonyl}amino)ethoxy]benzoyl}amino)propanoic acid]
> 1 µM	N=C(N)NCCOc1ccc(C(=O)NC[C@H](NC(=O)c2cccnc2)C(=O)O)c(O)c1 [Example 209, (2S)-3-{[4-(2-{[amino(imino)methyl]amino}ethoxy)-2-hydroxybenzoyl]amino}-2-[(pyridin-3-ylcarbonyl)amino]propanoic acid]
14.1 µM	N=C(N)NCCOc1ccc(C(=O)NC[C@H](NC(=O)c2ccccc2Cl)C(=O)O)c(O)c1 [Example 203, (2S)-3-{[4-(2-{[amino(imino)methyl]amino}ethoxy)-2-hydroxybenzoyl]amino}-2-[(2-chlorobenzoyl)amino]propanoic acid]
0.69 µM	CC(C)(C)COC(=O)N[C@@H](CNC(=O)c1ccc(OCCNC(=O)NCc2cccnc2)cc1O)C(=O)O [Example 243, (2S)-3-({2-hydroxy-4-[2-({[(pyridin-3-ylmethyl)amino]carbonyl}-amino)ethoxy]-benzoyl}amino)-2-{[(neopentyloxy)carbonyl]amino}propanoic acid]
0.674 µM	COc1ccccc1NC(=O)N[C@@H](CNC(=O)c1ccc(OCCNC2=NCCCN2)cc1O)C(=O)O [Example 25, (2S)-3-({2-hydroxy-4-[2-(1,4,5,6-tetrahydropyrimidin-2-ylamino)ethoxy]benzoyl}-amino)-2-{[(2-methoxyanilino)carbonyl]amino}propanoic acid]
0.39 µM	N=C(N)NCCOc1ccc(C(=O)NC[C@H](NC(=O)OCC(Cl)(Cl)Cl)C(=O)O)c(O)c1 [Example 165, (2S)-3-{[4-(2-{[amino(imino)methyl]amino}ethoxy)-2-hydroxybenzoyl]amino}-2-{[(2,2,2-trichloroethoxy)carbonyl]amino}propanoic acid]
100 µM	C=CCCOC(=O)N[C@@H](CNC(=O)c1ccc(OCCNc2ncccn2)cc1O)C(=O)O [Example 70, (2S)-2-{[(but-3-enyloxy)carbonyl]amino}-3-({2-hydroxy-4-[2-(pyrimidin-2-ylamino)ethoxy]benzoyl}amino)propanoic acid]
6.87 µM	N=C(N)NCCOc1ccc(C(=O)NC[C@H](NC(=O)Nc2ccccc2)C(=O)O)c(O)c1 [Example 189, (2S)-3-{[4-(2-{[amino(imino)methyl]amino}ethoxy)-2-hydroxybenzoyl]amino}-2-[(anilinocarbonyl)amino]propanoic acid]
